In test [1] the target is T1, GTPase KRas [1-169,G12C,C118A] (Homo sapiens, UniProt P01116, C118A/G12C).
T1 construct: 1-169
Briefly: Coupled Nucleotide Exchange Assay (20 hours). The protocol:
(§1) Purified GDP-bound KRAS protein (aa 1-169), containing either G12C or G12D, as well as C118A amino acid substitutions and an N-terminal His-tag, was pre-incubated in assay buffer (25 mM HEPES pH 7.4, 10 mM MgCl2, and 0.01% Triton X-100) with a compound dose-response titration for 20 hours. Following compound pre-incubation, purified SOS protein (aa 564-1049) and GTP (Roche 10106399001) were added to the assay wells and incubated for an additional 30 min. To determine the extent of inhibition of SOS-mediated nucleotide exchange, purified GST-tagged cRAF (aa 1-149), nickel chelate AlphaLISA acceptor beads (PerkinElmer AL108R), and AlphaScreen glutathione donor beads (PerkinElmer 6765302) were added to the assay wells and incubated for 10 minutes. The assay plates were then read on a PerkinElmer EnVision Multilabel Reader, using AlphaScreen technology, and data were analyzed using a 4-parameter logistic model to calculate IC50 values.

In a further test the target is GTPase KRas [G12D,C118A] (Homo sapiens, UniProt P01116, C118A/G12D). Briefly: Coupled Nucleotide Exchange Assay (20 hours). The protocol: as §1
Chain of GTPase KRas [G12D,C118A] (P01116 whole entry G12D/C118A, looked up): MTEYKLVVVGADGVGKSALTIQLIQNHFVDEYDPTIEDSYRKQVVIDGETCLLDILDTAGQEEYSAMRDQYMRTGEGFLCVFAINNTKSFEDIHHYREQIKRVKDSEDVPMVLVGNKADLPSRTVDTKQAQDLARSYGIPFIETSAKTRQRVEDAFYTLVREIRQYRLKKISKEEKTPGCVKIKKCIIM
In test [2] the target is T1, GTPase KRas [1-169,G12C,C118A]. In words: Coupled Nucleotide Exchange Assay (5min). How it is done: as §1, with “either 5 min.” for “20 hours.”

Each structure is given as a SMILES string. Where only a bound is given, the exact number is not on record here.

T1 sequence (P01116 1-169 G12C/C118A): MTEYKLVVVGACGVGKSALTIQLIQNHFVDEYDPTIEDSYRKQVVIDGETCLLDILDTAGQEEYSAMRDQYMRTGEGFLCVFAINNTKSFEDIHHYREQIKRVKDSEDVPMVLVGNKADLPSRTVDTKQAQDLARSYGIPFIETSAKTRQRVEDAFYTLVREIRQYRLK

With `CC(=O)C(=O)N1CCN(c2nc(=O)n(-c3c(C)ccnc3C(C)C)c3nc(-c4ccccc4F)c(Cl)cc23)[C@@H](C)C1` [US20240190862, Example 3], the IC50 (usually the concentration that inhibits the measured activity by half) in test [1] was 31.3 µM; against GTPase KRas [G12D,C118A] it was > 250 µM.
As for `Cc1ccnc(C(C)C)c1-n1c(=O)nc(N2CCN(C(=O)C=O)C[C@@H]2C)c2cc(Cl)c(-c3ccccc3F)nc21` [US20240190862, Example 4], the IC50 in test [1] was 0.039 µM; on GTPase KRas [G12D,C118A], > 250 µM; in test [2] it was 0.61 µM.
With `Cc1ccnc(C(C)C)c1-n1c(=O)nc(N2CCN(C(=O)COc3c(F)cccc3F)C[C@@H]2C)c2cc(Cl)c(-c3ccccc3F)nc21` [US20240190862, Example 8], the half-inhibitory concentration (IC50) was 24 µM in test [1] and > 250 µM on GTPase KRas [G12D,C118A].
For the compound `Cc1ccnc(C(C)C)c1-n1c(=O)nc(N2CCN(C(=O)C=[N+]=[N-])C[C@@H]2C)c2cc(Cl)c(-c3ccccc3F)nc21` [US20240190862, Example 13], the IC50 in test [1] is 0.54 µM; at GTPase KRas [G12D,C118A], > 250 µM; in test [2] it was 8.59 µM.

For the origin of these results see BindingDB's records for patent US20240190862 (Amgen, 2024).
